Experimental data taken from paper PMC3519852, “Non-Traditional Antibacterial Screening Approaches for the Identification of Novel Inhibitors of the Glyoxylate Shunt in Gram-Negative Pathogens” (PLoS ONE, 2012).

Legend:
[1] = biological target: T1, MS (Pseudomonas aeruginosa, UniProt Q9I636); experiment: DTNB detection of coenzyme A at […] nm; format: biochemical
T1 construct: gene glcB

[2] = biological target: T2, ICL (Pseudomonas aeruginosa, UniProt Q9I0K4); experiment: absorbance at […] nm, phenylhydrazine assay; format: biochemical
T2 construct: gene PA2634
T2 sequence (Q9I0K4 1-531): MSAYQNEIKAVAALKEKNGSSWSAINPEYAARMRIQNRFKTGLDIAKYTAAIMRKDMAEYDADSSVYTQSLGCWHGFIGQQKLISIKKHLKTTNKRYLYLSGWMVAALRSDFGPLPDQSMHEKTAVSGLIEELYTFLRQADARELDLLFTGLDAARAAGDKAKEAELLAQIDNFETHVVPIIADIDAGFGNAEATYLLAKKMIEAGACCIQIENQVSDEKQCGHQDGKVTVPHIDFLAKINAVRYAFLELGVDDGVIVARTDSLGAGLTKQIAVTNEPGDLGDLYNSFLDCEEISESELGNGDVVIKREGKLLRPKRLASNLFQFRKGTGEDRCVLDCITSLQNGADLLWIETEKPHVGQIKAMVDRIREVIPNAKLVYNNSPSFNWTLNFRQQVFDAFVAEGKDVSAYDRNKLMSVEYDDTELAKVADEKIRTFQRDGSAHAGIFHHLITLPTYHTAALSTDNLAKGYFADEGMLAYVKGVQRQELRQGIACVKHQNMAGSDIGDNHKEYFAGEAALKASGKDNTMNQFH

T1 sequence (Q9I636 whole entry): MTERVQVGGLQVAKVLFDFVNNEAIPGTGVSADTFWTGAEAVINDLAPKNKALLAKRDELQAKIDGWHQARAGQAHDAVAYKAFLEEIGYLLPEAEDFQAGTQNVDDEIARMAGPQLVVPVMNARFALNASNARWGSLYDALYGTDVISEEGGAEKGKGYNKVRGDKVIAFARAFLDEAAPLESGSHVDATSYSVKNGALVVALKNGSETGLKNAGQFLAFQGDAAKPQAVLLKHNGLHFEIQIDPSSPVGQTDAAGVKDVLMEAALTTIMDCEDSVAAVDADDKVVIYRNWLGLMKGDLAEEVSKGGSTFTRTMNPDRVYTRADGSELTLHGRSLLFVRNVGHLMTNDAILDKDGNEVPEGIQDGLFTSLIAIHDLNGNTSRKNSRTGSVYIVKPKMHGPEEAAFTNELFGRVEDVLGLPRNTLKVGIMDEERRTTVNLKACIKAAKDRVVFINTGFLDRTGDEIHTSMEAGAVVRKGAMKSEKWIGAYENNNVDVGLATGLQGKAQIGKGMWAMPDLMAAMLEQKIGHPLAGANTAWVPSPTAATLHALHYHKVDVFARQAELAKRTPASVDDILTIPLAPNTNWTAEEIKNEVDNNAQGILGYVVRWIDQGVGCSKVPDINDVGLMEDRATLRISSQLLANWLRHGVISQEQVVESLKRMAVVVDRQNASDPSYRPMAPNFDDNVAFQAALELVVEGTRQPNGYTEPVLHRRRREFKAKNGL

COc1ccccc1N1CCN(CCCNC(=O)C(Cc2ccc(F)c(F)c2)C(C)=O)CC1 (racemic) [compound 2, Compound 2]
IC50 [1]: 1770 nM
IC50 [2]: 240 nM

Nc1nnc(SCc2ccc(O)c3ncccc23)s1 [compound 1, Compound 1]
IC50 [1]: 180 nM
IC50 [2]: 690 nM

CC(C)(C)OC(=O)/N=C(\NC(=O)OC(C)(C)C)Nc1cc(Cl)ccn1 [compound 3, Compound 3]
IC50 [1]: 5300 nM
IC50 [2]: 170 nM

CC(C)(C)OC(=O)NC(=Nc1cc(CCC(=O)O)ccn1)NC(=O)OC(C)(C)C [compound 4, Compound 4]
IC50 [1]: 1290 nM
IC50 [2]: 30 nM

N=C(N)Nc1cccc2ncccc12 [compound 7, Compound 7]
IC50 [1]: 6930 nM
IC50 [2]: 190 nM

N=C(N)Nc1ccc2nn[nH]c2c1 [compound 8, Compound 8]
IC50 [1]: 8880 nM
IC50 [2]: 370 nM
